Entries after “also recorded” stand apart in the source; their conditions may differ. Square brackets hold non-standard residues; d marks the D form. Peptide text beside a SMILES is read from it. * marks the point of attachment. Dolaproine = CO[C@@H]([C@@H]1CCCN1)[C@@H](C)C(=O)O; Dil = CC[C@H](C)[C@H](NC)[C@@H](CC(=O)O)OC; X1 = C[C@@H](N*)[C@@H](O)c1ccccc1; NMeV = CN[C@H](C(=O)O)C(C)C
What was measured:
A431 cells = assay: Drug matrix screen: siRNA knockdown and cell viability; assay type: cell-based; conditions: for drug sensitivity / cell killing upon EGFR siRNA knockdown: EGFR siRNA control; for shift in drug sensitivity (cell viability) upon siRNA knockdown of γ-tubulin ring complex genes: knockdown of GCNT1, TUBGCP4 and TUBGCP6 relative to CON3 siRNA control, at drug concentrations yielding <60% cell viability
Protocol: An siRNA library was produced based targeting genes identified from methods listed above. The siRNA panel in 96 well plates (Dharmacon) was diluted to 66 nM/15 μl was combined with equal volume of RNAiMax Lipofectamine (Life Technologies) diluted to 0.15×/15 μl, pipette mixed thoroughly then allowed to incubate for 15 minutes at room temperature before addition of 30 μl/well to A431, U87MG_del, and U87MG_EGFR cell lines seeded in 96 well plates at 4500 cells/70 μl/well. Plates were incubated in 37° C. 5% CO2 incubator for 18-24 hours prior to addition of 10 μl drug (MMAE: 1.5 nM final conc., depatuxizumab mafodotin: 18 nM final conc.) or vehicle (phosphate-buffered saline, PBS). Cell viability was assessed post 48 hour drug treatment via Cell Titer Glo (Promega) for A431 cell line or SRB cell stain assay (Sulforhodamine B assay and Chemosensitivity, Voigt et al.) for U87MG_del2.7 and U87MG_EGFR cell lines following recommended protocols with the following exception: media was aspirated off Cell Titer Glo (CTG) plates and 100 μl 1:5 diluted CTG in PBS added per well, covered with foil, rotated to mix 15 minutes prior to reading on Victor chemilluminescent reader. The assay was performed using triplicate plates per drug/vehicle as well as last row of plate contained control siRNA CON3 incubated with vehicle to control for any plate effect. Each plate also contained a row of positive and negative siRNA controls treated with drug for normalization of effects of siRNA KD within and across plates. Effect of siRNA KD assessed via combination of triplicate reactions per siRNA/drug normalized to CON3 siRNA/PBS control and then normalized to CON3 siRNA/drug to determine shift to drug with siRNA KD.
A protocol similar to high-throughput screen was used, except siRNA was loaded in a 3×6 well matrix in a 96 well plate with the following siRNAs (CON3, GCNT1, TUBGCP4, TUBGCP6) per quarter plate. EGFR siRNA was loaded in exterior rows as a control. Drug was diluted to 5 serial-5 dilutions (MMAE, Vincristine, Paclitaxel) or 5 serial 3-dilutions (depatuxizumab mafodotin) along with no drug control and added to triplicate wells (starting concentrations MMAE: 100 nM; Vincristine: 2000 nM; Paclitaxel: 2000 nM; depatuxizumab mafodotin: 99 nM).

[1] = test system: glioblastoma with EGFR amplification; assay: Phase 1 study M12-356 (NCT01800695), tumor response; assay type: in vivo, human; conditions: patients with EGFR-amplified rGBM; FIG. 1
Protocol: In a Phase 1 study (M12-356, NCT01800695) of depatuxizumab mafodotin in patients with newly diagnosed glioblastoma (nGBM) and recurrent glioblastoma (rGBM) with EGFR amplification, responses in patients with rGBM correlated with EGFR amplification in pre-treatment, archival tumor tissue. Gene amplification was determined by fluorescence in situ hybridization (FISH). Two probes were used: locus-specific EGFR probe and chromosome enumeration probe (CEP) 7. FIG. 1 illustrates change in tumor size in patients with EGFR-amplified rGBM.
Tumor samples for study were from biopsies taken prior to entry onto depatuxizumab mafodotin trial M12-356 (NCT01800695). M12-356 is an open-label, phase 1, 3-arm study: Arm A (depatuxizumab mafodotin+radiation/temozolomide (TMZ) in newly diagnosed GBM; Arm B (depatuxizumab mafodotin+TMZ in newly diagnosed GBM as adjuvant therapy, or in recurrent GBM); and Arm C (depatuxizumab mafodotin monotherapy in recurrent GBM). Arms B and C had and expansion cohort in subjects with centrally confirmed EGFR amplified recurrent GBM.

| Molecule | drug sensitivity / cell killing upon EGFR siRNA knockdown (A431 cells; FIG. 3) | drug sensitivity / cell killing upon EGFR siRNA knockdown (A431 cells; FIG. 3, listed as depatux-m) | shift in drug sensitivity (cell viability) upon siRNA knockdown of γ-tubulin ring complex genes (A431 cells; FIG. 3) | shift in drug sensitivity (cell viability) upon siRNA knockdown of γ-tubulin ring complex genes (A431 cells; FIG. 3, listed as depatux-m) | clinical response (change in tumor size) [1] | shift in drug sensitivity (cell viability) upon siRNA knockdown of γ-tubulin ring complex genes (A431 cells; FIG. 3, listed as vincristine) |
| --- | --- | --- | --- | --- | --- | --- |
| depatuxizumab mafodotin | loss of drug sensitivity | abrogated drug internalization and cell killing | increased sensitivity | impacted sensitivity; also recorded: more sensitive; also recorded: sensitization | not all patients with EGFR amplification responded |  |
| CC[C@]1(O)C[C@H]2CN(CCc3c([nH]c4ccccc34)[C@@](C(=O)OC)(c3cc4c(cc3OC)N(C=O)[C@H]3[C@@](O)(C(=O)OC)[C@H](OC(C)=O)[C@]5(CC)C=CCN6CC[C@]43[C@@H]65)C2)C1 [Vincristine] |  |  | increased sensitivity |  |  | impacted sensitivity; also recorded: more sensitive |
| CC[C@H](C)[C@@H]([C@@H](CC(=O)N1CCC[C@H]1[C@H](OC)[C@@H](C)C(=O)N[C@H](C)[C@@H](O)c1ccccc1)OC)N(C)C(=O)[C@@H](NC(=O)[C@@H](NC)C(C)C)C(C)C [MMAE, monomethyl auristatin E] (H-[NMeV]V[Dil][Dolaproine]-X1) |  |  | impacted sensitivity; also recorded: more sensitive; also recorded: increased sensitivity |  |  |  |
| CC(=O)O[C@H]1C(=O)[C@@]2(C)[C@H]([C@H](OC(=O)c3ccccc3)[C@]3(O)C[C@H](OC(=O)[C@H](O)[C@@H](NC(=O)c4ccccc4)c4ccccc4)C(C)=C1C3(C)C)[C@]1(OC(C)=O)CO[C@@H]1C[C@@H]2O [Paclitaxel] |  |  | no additional shift in sensitivity |  |  |  |

Source: patent US20190231893A1, “METHODS OF TREATING CANCER” (priority 2017, published 2019)
